Results as given in patent US11097009B2, “CTB-PI polyamide conjugate for activating expression of specific gene” (KYOTO UNIVERSITY, priority 2015, dated 2021).

Legend:
[1] = test system: Human dermal fibroblasts (HDFs); test: Microarray analysis of genome-wide gene expression; format: cell-based; details: 1 μM effector, 48 hours, vs 0.5% DMSO
[2] = test system: HDAC (nucleus extracts of HeLa cells); test: HDAC inhibitory activity evaluation (Color de Lys Substrate Deacetylation); format: biochemical; details: 0.2 mM substrate, 37° C., 30 minutes, absorption at 405 nm
Method: Trichostatin A (TSA), SAHA, and CTB were evaluated for their inhibitory activity against Color de Lys™ Substrate Deacetylation using nucleus extracts of HeLa cells. The nucleus extracts of HeLa cells were incubated with 0.2 mM of a substrate at 37° C. After 30 minutes, the reaction was terminated. Then, absorption at 405 nm was measured using Color de Lys™ Developer and thereby evaluated as HDAC inhibitory activity. The strong HDAC inhibitor trichostatin A (TSA) was compared with SAHA and CTB in terms of HDAC inhibitory activity.

| SMILES | gene groups whose expression is activated (microarray clustering analysis) [1] | HDAC inhibitory activity [2] |
| --- | --- | --- |
| O=C(CCCCCCC(=O)Nc1ccccc1)NO [SAHA, suberoylanilide hydroxamic acid] | activates the expression of cancer- and cardiovascular disease-related gene groups | – |
| CCOc1ccccc1C(=O)Nc1ccc(Cl)c(C(F)(F)F)c1 [CTB, N-(4-chloro-3-(trifluoromethyl)phenyl)-2-ethoxybenzamide] | activates the expression of a connective tissue disorder-related gene group | lack HDAC inhibitory activity |
